Columns and labels:
[1] = system: Renca cells (renal cell carcinoma); experiment: Effect of isomers on in vivo tumour growth in mice challenged with Renca cells (Example 7); parameters: species or system Balb/c mice; conditions: for Tumour surface, overall values (Mean) / Tumour surface, overall values (Median) / Tumour volume, overall values (Mean) / Tumour volume, overall values (Median): 260 ng/mouse i.p. days 6, 7, 14
Source text: This assay was made in order to check the effect of each stereoisomer on in vivo tumour growth in mice challenged with Renca cells. Their effect was compared with placebo. The stereoisomers assayed were:
Renca is a renal cell carcinoma originated in Balb/c mouse strain, and therefore syngeneic in mice with Balb/c genetic background [Melder R J et al., Cancer Immunol. Immunother., 2005, 54:535-547; Felluga B et al., 1969, J. Natl. Cancer Inst. 43:319-333]. Renca is considered a moderate immunogenic tumour and used as suitable model for testing immunointervention approaches [Salup R R, et al., 1992, The Journal of Urology, 147:1120-1123].
Renca cells (CLS, Eppelheim, Germany) were maintained in vitro by serial passages every 3-4 days. Cultures were performed with RPMI medium medium (RPMI, 10% foetal calf serum, 2 mM L-glutamine, non essential amino acids, 1 mM sodium pyruvate, 20 mM HEPES, 80 μg/mL gentamycin; all of them were purchased from Sigma, St. Louis, Mo., USA) by seeding 5×10^6 cells onto 75 cm^2 culture flasks. Tumour cells collected from 48 hour cultures upon trypsinization (Sigma, St. Louis, Mo., USA) were used as source of Renca cells for the studies described below.
Each isomer was tested at the dose levels of 260 ng administered on days 6, 7 and 14 after tumour inoculation.
The treatments were given by intraperitoneal route (i.p.). The volume inoculated was 0.2 mL/animal. This route was chosen because it is the one described in the original method [Pérez S, et al., 2003, Clinical Cancer Research. 9:5776-5785].
Tumours were established by subcutaneous inoculation in the right hind flank. Mice (Balb/c) were inoculated with 0.2 mL containing 10^5 viable Renca cells. The day of subcutaneous inoculation will be considered Day 0 of the test.
Mice were observed daily and the tumour size recorded twice a week. This was carried out by measuring two perpendicular diameters (L/W) with a calliper. These measures were used to obtain both tumour surface and volume: Tumour surface=L×W(mm^2) Tumour volume=L×W^2×½(mm^3)
(§1) Results were expressed as single values and/or as the mean±SD or median from each experimental group.
A case-control study was performed with treated and control mice in order to determine whether differences between isomers and administration of placebo were present. […] The U-test of Mann Withney was chosen for being one of the better known non-parametrical tests, anyway, results for this test are equivalent both to those of Wilcoxon's sum of ranges and Kruskal-Wallis two-groups test.
Due to the high dispersion of data, outlayers (animals beyond percentile 25 or above percentile 75 for tumour surface at day 25) were excluded of the study.

[2] = system: ASB XIV cells (pulmonary squamous cell carcinoma); experiment: Effect of isomers and BLAS on in vivo tumour growth, ASB XIV tumours (Example 8); parameters: species or system Balb/c mice; conditions: for Tumour surface, overall values (Mean) / Tumour surface, overall values (Median) / Tumour volume, overall values (Mean) / Tumour volume, overall values (Median): 260 ng/mouse i.p. days 6, 7 and 14
Source text: This assay was made in order to compare the effect of each stereoisomer on in vivo tumour growth in mice with the effect of the mixture of all of them challenged with ASB XIV tumours. The stereoisomers assayed were the same as in example 7 above plus a mixture of all of them (BLAS). The equipment (when needed), reagents, dose, vehicle and route and volume of administration were the same as in example 7.
ASB XIV is a pulmonary squamous cell carcinoma originated in Balb/c mouse strain, and therefore syngeneic in mice with Balb/c genetic background.
ASB XIV cells (CLS, Eppelheim, Germany) were maintained in vitro by serial passages every 3-4 days. Cultures were performed with RPMI medium medium (RPMI, 10% foetal calf serum, 2 mM L-glutamine, non essential aminoacids, 1 mM sodium pyruvate, 20 mM HEPES, 80 μg/mL gentamycin; all of them were purchased from Sigma, St. Louis, Mo., USA) by seeding 5×10^6 cells onto 75 cm^2 culture flasks. Tumour cells collected from 48 hour cultures upon trypsinization (Sigma, St. Louis, Mo., USA) were used as source of ASB XIV cells in the present example.
• BLAS (mixture of isomers 1, 2, 3 and 4) at a concentration of 65 μg/mL in sterile physiological saline. Isomer 1 (9b) at a concentration of 65 μg/mL in sterile physiological saline. • Isomer 2 (9c) at a concentration of 65 μg/mL in sterile physiological saline. • Isomer 3 (9a) at a concentration of 65 μg/mL in sterile physiological saline. • Isomer 4 (9d) at a concentration of 65 μg/mL in sterile physiological saline. Placebo
Tumours were established by subcutaneous inoculation in the right hind flank. Mice (Balb/c) were inoculated with 0.2 mL containing 2×10^5 viable ASB XIV cells. The day of subcutaneous inoculation will be considered Day 0 of the test.
Mice were observed daily and the tumour size recorded twice a week. This was carried out by measuring two perpendicular diameters (d1/d2) with a calliper. These measures were used to obtain both tumour surface and volume: Tumour surface=d1×d2(mm^2) Tumour volume=d1×d2^2×½(mm^3)
as §1
A case-control study was performed with treated and control mice in order to determine whether differences between BLAS or each diferent stereoisomer and administration of placebo were present. […] The U-test of Mann Withney was chosen for being one of the better known non-parametrical tests, anyway, results for this test are equivalent both to those of Wilcoxon's sum of ranges and Kruskal-Wallis two-groups test.
Due to the high dispersion of data, outlayers (animals beyond percentile 10 or above percentile 90 for tumour surface at day 33) were excluded of the study.

[3] = day 11 after tumour inoculation
[4] = day 14 after tumour inoculation
[5] = day 12 after tumour inoculation
[6] = day 15 after tumour inoculation
[7] = day 19 after tumour inoculation
[8] = day 22 after tumour inoculation
[9] = day 26 after tumour inoculation
[10] = day 29 after tumour inoculation
[11] = day 33 after tumour inoculation

Br.N[C@]1(C[n+]2ccccc2)C[C@@H](C(=O)O)NC1=O.[Br-] (single isomer, unassigned; isomer 3) [isomer 3, 3S,5S-1-(3-Amino-5-carboxy-2-oxopyrrolidin-3-ylmethyl)pyridinium bromide hidrobromide]
Inhibition of the in vivo growth of the renal cell carcinoma (Renca), in words ([1]; 260 ng i.p. days 6, 7, 14): inhibit the in vivo growth
Tumour surface, overall values (Mean) ([1]; day 0 after tumour inoculation): 0 mm^2
Tumour surface, overall values (Median) ([1]; day 0 after tumour inoculation): 0 mm^2
Tumour volume, overall values (Mean) ([1]; day 0 after tumour inoculation): 0 mm^3
Tumour volume, overall values (Median) ([1]; day 0 after tumour inoculation): 0 mm^3
Tumour surface, overall values (Mean) [1, 3]: 0.3 mm^2
Tumour surface, overall values (Median) [1, 3]: 0 mm^2
Tumour volume, overall values (Median) [1, 3]: 0 mm^3
Tumour surface, overall values (Median) [1, 4]: 4 mm^2
Tumour volume, overall values (Median) [1, 4]: 4 mm^3
Differences in Renca tumour growth rate vs. placebo, statistical significance p (Mann-Whitney U test) ([1]; either in surface or volume, days 18th and 25th of tumour development): < 0.05
Inhibition of the in vivo growth of the lung carcinoma ASB XIV, in words ([2]; 260 ng i.p. days 6, 7 and 14): inhibit the in vivo growth
Tumour surface, overall values (Mean) ([2]; day 0 after tumour inoculation): 0 mm^2
Tumour surface, overall values (Median) ([2]; day 0 after tumour inoculation): 0 mm^2
Tumour volume, overall values (Mean) ([2]; day 0 after tumour inoculation): 0 mm^3
Tumour volume, overall values (Median) ([2]; day 0 after tumour inoculation): 0 mm^3
Tumour surface, overall values (Mean) ([2]; day 8 after tumour inoculation): 0 mm^2
Tumour surface, overall values (Median) ([2]; day 8 after tumour inoculation): 0 mm^2
Tumour volume, overall values (Mean) ([2]; day 8 after tumour inoculation): 0 mm^3
Tumour volume, overall values (Median) ([2]; day 8 after tumour inoculation): 0 mm^3
Tumour surface, overall values (Mean) [2, 5]: 0.29 mm^2
Tumour surface, overall values (Median) [2, 5]: 0 mm^2
Tumour volume, overall values (Mean) [2, 5]: 0.44 mm^3
Tumour volume, overall values (Median) [2, 5]: 0 mm^3
Tumour surface, overall values (Mean) [2, 6]: 2.81 mm^2
Tumour surface, overall values (Median) [2, 6]: 0 mm^2
Tumour volume, overall values (Mean) [2, 6]: 6.31 mm^3
Tumour volume, overall values (Median) [2, 6]: 0 mm^3
Tumour surface, overall values (Mean) [2, 7]: 15.16 mm^2
Tumour surface, overall values (Median) [2, 7]: 9 mm^2
Tumour volume, overall values (Mean) [2, 7]: 44.13 mm^3
Tumour volume, overall values (Median) [2, 7]: 13.5 mm^3
Tumour surface, overall values (Mean) [2, 8]: 33.16 mm^2
Tumour surface, overall values (Median) [2, 8]: 25 mm^2
Tumour volume, overall values (Mean) [2, 8]: 116.65 mm^3
Tumour volume, overall values (Median) [2, 8]: 62.5 mm^3
Tumour surface, overall values (Mean) [2, 9]: 68.67 mm^2
Tumour surface, overall values (Median) [2, 9]: 64 mm^2
Tumour volume, overall values (Mean) [2, 9]: 337.18 mm^3
Tumour volume, overall values (Median) [2, 9]: 256 mm^3
Tumour surface, overall values (Mean) [2, 10]: 94.61 mm^2
Tumour surface, overall values (Median) [2, 10]: 99 mm^2
Tumour volume, overall values (Mean) [2, 10]: 529.37 mm^3
Tumour volume, overall values (Median) [2, 10]: 445.5 mm^3
Tumour surface, overall values (Mean) [2, 11]: 131.35 mm^2
Tumour surface, overall values (Median) [2, 11]: 140 mm^2
Tumour volume, overall values (Mean) [2, 11]: 848.87 mm^3
Tumour volume, overall values (Median) [2, 11]: 700 mm^3
Differences in ASB XIV tumour growth rate vs. placebo, statistical significance p (Mann-Whitney U test) ([2]; either in surface or volume, all days scored after the day 26th): < 0.05

Br.N[C@@]1(C[n+]2ccccc2)C[C@@H](C(=O)O)NC1=O.[Br-] (single isomer, unassigned; isomer 1) [isomer 1, 3R,5S-1-(3-Amino-5-carboxy-2-oxopyrrolidin-3-ylmethyl)pyridinium bromide hidrobromide]
Tumour surface, overall values (Mean) ([1]; day 0 after tumour inoculation): 0 mm^2
Tumour surface, overall values (Median) ([1]; day 0 after tumour inoculation): 0 mm^2
Tumour volume, overall values (Mean) ([1]; day 0 after tumour inoculation): 0 mm^3
Tumour volume, overall values (Median) ([1]; day 0 after tumour inoculation): 0 mm^3
Tumour surface, overall values (Median) [1, 3]: 0 mm^2
Tumour volume, overall values (Median) [1, 3]: 0 mm^3
Tumour surface, overall values (Mean) ([2]; day 0 after tumour inoculation): 0 mm^2
Tumour surface, overall values (Median) ([2]; day 0 after tumour inoculation): 0 mm^2
Tumour volume, overall values (Mean) ([2]; day 0 after tumour inoculation): 0 mm^3
Tumour volume, overall values (Median) ([2]; day 0 after tumour inoculation): 0 mm^3
Tumour surface, overall values (Mean) ([2]; day 8 after tumour inoculation): 0 mm^2
Tumour surface, overall values (Median) ([2]; day 8 after tumour inoculation): 0 mm^2
Tumour volume, overall values (Mean) ([2]; day 8 after tumour inoculation): 0 mm^3
Tumour volume, overall values (Median) ([2]; day 8 after tumour inoculation): 0 mm^3
Tumour surface, overall values (Mean) [2, 5]: 0.32 mm^2
Tumour surface, overall values (Median) [2, 5]: 0 mm^2
Tumour volume, overall values (Mean) [2, 5]: 0.45 mm^3
Tumour volume, overall values (Median) [2, 5]: 0 mm^3
Tumour surface, overall values (Mean) [2, 6]: 3.45 mm^2
Tumour surface, overall values (Median) [2, 6]: 0 mm^2
Tumour volume, overall values (Mean) [2, 6]: 5.34 mm^3
Tumour volume, overall values (Median) [2, 6]: 0 mm^3
Tumour surface, overall values (Mean) [2, 7]: 19.65 mm^2
Tumour surface, overall values (Median) [2, 7]: 16 mm^2
Tumour volume, overall values (Mean) [2, 7]: 53.37 mm^3
Tumour volume, overall values (Median) [2, 7]: 32 mm^3
Tumour surface, overall values (Mean) [2, 8]: 46.81 mm^2
Tumour volume, overall values (Mean) [2, 8]: 179.79 mm^3
Tumour surface, overall values (Mean) [2, 9]: 92.52 mm^2
Tumour surface, overall values (Median) [2, 9]: 72 mm^2
Tumour volume, overall values (Mean) [2, 9]: 474.10 mm^3
Tumour volume, overall values (Median) [2, 9]: 288 mm^3
Tumour surface, overall values (Mean) [2, 10]: 125.16 mm^2
Tumour surface, overall values (Median) [2, 10]: 110 mm^2
Tumour volume, overall values (Mean) [2, 10]: 733.26 mm^3
Tumour volume, overall values (Median) [2, 10]: 550 mm^3
Tumour surface, overall values (Mean) [2, 11]: 165.65 mm^2
Tumour surface, overall values (Median) [2, 11]: 154 mm^2
Tumour volume, overall values (Mean) [2, 11]: 1114.37 mm^3
Tumour volume, overall values (Median) [2, 11]: 864 mm^3
